Literature values as cited in patent US20150374773A1, “Homeopathic Composition Comprising Hypericum Perforatum Extract And Essential Oils For The Treatment Of Neuropathic Pain” (NEURAGEN CORP., priority 2008, published 2015).

System: neuropathic pain
Settings: literature statement

In the case of `Nc1nnc(-c2cccc(Cl)c2Cl)c(N)n1` [Lamotrigine], the “efficacy in neuropathic pain” value is listed as “no better than placebo”.

For `NCC1(CC(=O)O)CCCCC1` [gabapentin], the “efficacy in neuropathic pain” value is given as “effective in painful diabetic neuropathy, mixed neuropathies, and postherpetic neuralgia”.
